From patent US20040115739A1, “Method for identifying maxi-k channel blockers for use in lowering elevated intraocular pressure using hek-293 cells” (priority 2003, published 2004)

What was measured:
Assay type in all cases: cell-based
[1] = target: T1, maxi-K channels transiently expressed in TsA-201 cells (Homo sapiens, UniProt Q12791); assay: VIPR/FRET membrane potential assay, maxi-K channels transiently expressed in TsA-201 cells; details: FIG. 2
T1 construct: expressed in transfected cells; host or cells: TsA-201 cells, transient transfection
Source text: In order to discover novel maxi-K channel blockers, a robust and reliable functional assay is required. High throughput screening assays with ion channels have been developed (see Aurora Biosciences J. E. Gonzalez et al., DDT, 4, 431-439, 1999). For example, transient transfection of maxi-K channel alpha and beta1 subunits into TsA-201 cells leads to the maxi-K channel controlling the membrane potential of those cells, under appropriate experimental conditions. However, transient transfection experiments are limited because, typically, the transfection has to occur for every experiment, the cells are only available for assay twice a week and results can be variable depending on the transfection efficiency. This invention relates to a new functional assay, which utilizes HEK-293 cells, which once transfected remains as such, thereby eliminating the need for further transfection. The claimed method also provides more reliable reading of the maxi-K channel activity.

[2] = test system: endogenous potassium conductances of HEK-293 cells; assay: VIPR/FRET membrane potential assay, high-potassium addition to HEK-293 cells; details: FIG. 1; for effect on fluorescence signal caused by high-potassium addition: untransfected HEK-293 cells, different/increasing concentrations of compound; for efficacy (inhibition of fluorescence signal) in the presence of Compound 1: HEK-293 cells, selective maxi-K channel blocker Compound 1 present
Method: HEK-293 cells were plated on 96-well poly-D-lysine plates and incubated for about 16 to 24 hours at 37° C. The media was aspirated and the cells were washed once with D-PBS. Cells were incubated with 9 μM coumarin (CC2DMPE)-0.02% pluronic-127 in D-PBS for 30 minutes in the dark. Cells were washed twice with D-PBS, and incubated with 4.5 μM oxanol (DiSBAC2(3)) in the absence (Control) or presence of increasing concentrations of test compound, in the dark for 30 minutes. Plates were loaded onto a VIPR instrument and the fluorescence emission of both dyes was recorded for 10 seconds. A solution containing high-potassium was then added and the fluorescence emission of the dyes was recorded for another 10 seconds. The coumarin/oxanol ratio was calculated under both conditions. Before addition of high-potassium, this ratio was always normalized to 1.
The signal is not affected by the presence of different concentrations of the selective maxi-K channel blocker, Compound 1. […] A useful concentration range for these agents is 3-10 μM. Importantly, in the presence of the selective maxi-K channel blocker Compound 1, the efficacy of either Compound A or Compound B is unaffected.

[3] = target: T2, maxi-K channel (alpha and beta 1 subunits) in stably transfected HEK-293 cells (Homo sapiens, UniProt Q12791); assay: VIPR/FRET membrane potential assay, HEK-293 cells stably transfected with alpha and beta 1 subunits of the maxi-K channel
T2 construct: expressed in transfected cells
Method: Transfection of the alpha and betal subunits of the maxi-K channel in HEK-293 cells was carried out as follows: HEK-293 cells were plated in 100 mm tissue culture treated dishes at a density of 3×10^6 cells per dish, and a total of five dishes were prepared. Cells were grown in a medium consisting of Dulbecco's Modified Eagle Medium (DMEM) supplemented with 10% Fetal Bovine serum, 1× L-Glutamine, and 1× Penicillin/Streptomycin, at 37° C., 10% CO2. For transfection with Maxi-K hα (pCIneo) and Maxi-K hβ1 (pIRESpuro) DNAs, 150 μl FuGENE6™ was added dropwise into 10 ml of serum free/phenol-red free DMEM and allowed to incubate at room temperature for 5 minutes. Then, the FuGENE6™ solution was added dropwise to a DNA solution containing 25 μg of each plasmid DNA, and incubated at room temperature for 30 minutes. After the incubation period, 2 ml of the FuGENE6™/DNA solution was added dropwise to each plate of cells and the cells were allowed to grow two days under the same conditions as described above. At the end of the second day, cells were put under selection media which consisted of DMEM supplemented with both 600 μg/ml G418 and 0.75 μg/ml puromycin. Cells were grown until separate colonies were formed. Five colonies were collected and transferred to a 6 well tissue culture treated dish. A total of 75 colonies were collected. Cells were allowed to grow until a confluent monolayer was obtained. Cells were then tested for the presence of maxi-K channel alpha and beta1 subunits using an assay that monitors binding of ^125I-iberiotoxin-D19Y/Y36F to the channel. Cells expressing ^125I-iberiotoxin-D19Y/Y36F binding activity were then evaluated in a functional assay that monitors the capability of maxi-K channels to control the membrane potential of transfected HEK-293 cells using fluorescence resonance energy transfer (FRET) ABS technology with a VIPR instrument. The colony giving the largest signal to noise ratio was subjected to limiting dilution. For this, cells were resuspended at approximately 5 cells/ml, and 200 μl were plated in individual wells in a 96 well tissue culture treated plate, to add ca. one cell per well. A total of two 96 well plates were made. When a confluent monolayer was formed, the cells were transferred to 6 well tissue culture treated plates. A total of 62 wells were transferred. When a confluent monolayer was obtained, cells were tested using the FRET-functional assay. […]
The plates are loaded into a voltage/ion probe reader (VIPR) instrument, and the fluorescence emission of both CC2DMPE and DiSBAC2(3) are recorded for 10 sec. At this point, 100 μl of high-potassium solution (mM): 140 KCl, 2 CaCl2, 1 MgCl2, 20 Hepes-KOH, pH 7.4, 10 glucose are added and the fluorescence emission of both dyes recorded for an additional 10 sec. […]

T2 sequence (Q12791 whole entry): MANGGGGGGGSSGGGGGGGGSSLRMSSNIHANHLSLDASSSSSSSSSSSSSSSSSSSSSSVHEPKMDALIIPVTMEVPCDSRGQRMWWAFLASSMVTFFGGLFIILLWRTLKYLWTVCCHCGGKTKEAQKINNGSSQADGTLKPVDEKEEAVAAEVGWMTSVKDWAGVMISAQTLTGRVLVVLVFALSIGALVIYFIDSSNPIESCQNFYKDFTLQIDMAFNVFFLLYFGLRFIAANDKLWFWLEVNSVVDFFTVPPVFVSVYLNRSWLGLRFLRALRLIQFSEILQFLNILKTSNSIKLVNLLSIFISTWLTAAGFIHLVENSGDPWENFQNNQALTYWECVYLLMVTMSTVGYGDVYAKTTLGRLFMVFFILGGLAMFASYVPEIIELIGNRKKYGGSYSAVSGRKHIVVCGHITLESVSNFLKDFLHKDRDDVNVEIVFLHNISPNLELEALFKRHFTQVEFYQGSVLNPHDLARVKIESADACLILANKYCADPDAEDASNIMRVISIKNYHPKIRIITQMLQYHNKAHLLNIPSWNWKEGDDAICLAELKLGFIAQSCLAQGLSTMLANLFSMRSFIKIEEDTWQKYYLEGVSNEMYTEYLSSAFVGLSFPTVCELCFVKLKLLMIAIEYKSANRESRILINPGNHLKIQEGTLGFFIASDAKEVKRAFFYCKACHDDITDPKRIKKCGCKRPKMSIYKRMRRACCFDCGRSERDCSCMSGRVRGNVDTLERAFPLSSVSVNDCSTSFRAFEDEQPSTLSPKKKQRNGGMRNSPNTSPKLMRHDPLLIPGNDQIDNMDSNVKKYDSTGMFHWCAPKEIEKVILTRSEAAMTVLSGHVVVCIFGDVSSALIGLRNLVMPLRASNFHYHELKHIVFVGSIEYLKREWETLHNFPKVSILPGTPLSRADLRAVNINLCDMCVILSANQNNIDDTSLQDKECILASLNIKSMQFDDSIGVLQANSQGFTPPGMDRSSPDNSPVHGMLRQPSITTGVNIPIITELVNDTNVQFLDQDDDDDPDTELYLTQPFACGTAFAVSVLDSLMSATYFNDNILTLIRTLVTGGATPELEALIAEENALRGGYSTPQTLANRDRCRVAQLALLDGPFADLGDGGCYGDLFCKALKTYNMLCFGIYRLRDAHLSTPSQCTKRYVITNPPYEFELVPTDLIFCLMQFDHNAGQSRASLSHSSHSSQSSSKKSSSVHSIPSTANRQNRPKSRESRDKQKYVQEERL
T2 sequence (Q16558 whole entry partner): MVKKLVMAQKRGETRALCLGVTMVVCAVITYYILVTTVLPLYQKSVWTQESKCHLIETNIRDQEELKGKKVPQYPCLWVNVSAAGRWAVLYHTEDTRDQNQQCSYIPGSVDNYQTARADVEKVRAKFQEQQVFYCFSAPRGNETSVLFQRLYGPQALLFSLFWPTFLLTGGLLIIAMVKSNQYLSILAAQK
T1 sequence (Q12791 whole entry): as the sequence (Q12791 whole entry) above
T1 sequence (Q16558 whole entry partner): as the sequence (Q16558 whole entry partner) above

SMILES	inhibition of control signal ([1]; 3 μM compound)	effect on fluorescence signal caused by high-potassium addition [2]	inhibition of control signal with increasing concentrations ([3]; 3 μM Compound A present in all wells, FIG. 4)	block of signal generated by addition of high-potassium solution ([3]; compound alone, no blocker of endogenous conductances, FIG. 3)	inhibition of signal generated by addition of high-potassium solution ([3]; in the presence of potassium channel blocker Compound A, FIG. 3)	effect on maxi-K channel activity [1]	efficacy (inhibition of fluorescence signal) in the presence of Compound 1 [2]	effect on the magnitude of the signal caused by addition of high-potassium solution ([3]; stably transfected HEK-293 cells, FIG. 3)
CC(=O)SCC(Cc1ccccc1)C(=O)NC(Cc1ccccc1)C(=O)NCCc1ccccc1 (stereo not drawn) [Compound 1]	completely inhibits the control signal	not affected	concentration-dependent inhibition of the control signal	only partially blocks the signal	complete inhibition of the signal			
COc1ccccc1C(=O)NCC1(c2ccccc2)CCC(=O)CC1 [Compound B]		concentration-dependent inhibition of the fluorescence signal				neither Compound A, nor Compound B have any effect on maxi-K channel activity	unaffected	
CCCNC(=O)OC1CCC(CNC(=O)c2ccccc2OC)(c2ccccc2)CC1 (stereo not drawn) [Compound A]		concentration-dependent inhibition of the fluorescence signal				neither Compound A, nor Compound B have any effect on maxi-K channel activity	unaffected	no significant effect
